# According to ChEMBL document CHEMBL5543087 (Eur J Med Chem, 2024):
# Structures can show the parent of a compound that is named as a salt. Numbered stars: 1 amine (or outer) side, 2 acyl side, 3 side chain; on linkers, the order of the positions; unused ones are H or OH. Square brackets hold non-standard residues; d marks the D form. Peptide text beside a SMILES is read from it. * marks the point of attachment. X2 = C[C@@](N[*:1])(C(=O)[*:2])C(F)(F)F; X1 = C[C@](N[*:1])(C(=O)[*:2])C(F)(F)F; Sta = CC(C)C[C@H](N)[C@@H](O)CC(=O)O; Cbz = O=C(OCc1ccccc1)*; Tfa = O=C(C(F)(F)F)*
# Columns and labels:
# [1] = Inhibition of porcine gastric mucosa Pepsin using MCA labeled GKPILFFRLK(DNP)-D-R-NH2 as substrate preincubated for 10 mins followed by substrate addition by FRET assay; parameters: species or system Sus scrofa
# [2] = Chromatographic hydrophobicity index of compound incubated for 20 mins by reversed-phase HPLC analysis; type: ADME
# [3] = Lipophilicity, logP of compound in n-Octanol/water; type: physicochemical
# [4] = system: BJ; experiment: Cytotoxicity against human BJ cells assessed as increase in LDH activity incubated for 24 hrs; type: toxicity, cell-based
# [5] = system: SK-OV-3; experiment: Cytotoxicity against human SK-OV-3 cells assessed as increase in LDH activity incubated for 24 hrs; type: toxicity, cell-based; conditions: sk-ov-3, 24 h
# [6] = system: SK-OV-3; experiment: Cytotoxicity against human SK-OV-3 cells assessed as increase in LDH activity at IC50 incubated upto 96 hrs; type: toxicity, cell-based; conditions: sk-ov-3, 96 h
# [7] = system: SK-OV-3; experiment: Cytotoxicity against human SK-OV-3 cells assessed as increase in LDH activity at 40 uM incubated upto 96 hrs; type: toxicity, cell-based; conditions: sk-ov-3, 96 h
# [8] = system: BJ; experiment: Cytotoxicity against human BJ cells assessed as increase in LDH activity at IC50 incubated upto 96 hrs; type: toxicity, cell-based
# [9] = system: SK-OV-3; experiment: Cytotoxicity against human SK-OV-3 cells assessed as change in cell morphology at IC50 incubated for 24 hrs by DAPI fluorescent staining analysis; type: toxicity, cell-based; conditions: sk-ov-3, 24 h
# [10] = system: SK-OV-3; experiment: Cytotoxicity against human SK-OV-3 cells assessed as change in nucleus morphology at IC50 incubated for 24 hrs by DAPI fluorescent staining analysis; type: toxicity, cell-based; conditions: sk-ov-3, 24 h
# [11] = system: SK-OV-3; experiment: Cytotoxicity against human SK-OV-3 cells assessed as diffused F-actin network at IC50 incubated for 24 hrs by phalloidin fluorescent staining analysis; type: toxicity, cell-based; conditions: sk-ov-3, 24 h
# [12] = system: SK-OV-3; experiment: Cytotoxicity against human SK-OV-3 cells assessed as cell retraction at 40 uM incubated for 24 hrs by DAPI fluorescent staining analysis; type: toxicity, cell-based; conditions: sk-ov-3, 24 h
# [13] = system: SK-OV-3; experiment: Cytotoxicity against human SK-OV-3 cells assessed as change in cell cytoskeleton at IC50 incubated for 24 hrs by phalloidin fluorescent staining analysis; type: toxicity, cell-based; conditions: sk-ov-3, 24 h
# [14] = system: SK-OV-3; experiment: Cytotoxicity against human SK-OV-3 cells assessed as change in fibronectin matrix organization at IC50 incubated for 24 hrs by phalloidin fluorescent staining analysis; type: toxicity, cell-based; conditions: sk-ov-3, 24 h
# [15] = system: SK-OV-3; experiment: Cytotoxicity against human SK-OV-3 cells assessed as change in cell cytoskeleton at 40 uM incubated for 24 hrs by phalloidin fluorescent staining analysis; type: toxicity, cell-based; conditions: sk-ov-3, 24 h
# [16] = system: SK-OV-3; experiment: Cytotoxicity against human SK-OV-3 cells assessed as change in fibronectin matrix organization at 40 uM incubated for 24 hrs by phalloidin fluorescent staining analysis; type: toxicity, cell-based; conditions: sk-ov-3, 24 h
# [17] = system: SK-OV-3; experiment: Cytotoxicity against human SK-OV-3 cells assessed as increase in LDH activity at 28 uM incubated upto 96 hrs; type: toxicity, cell-based; conditions: sk-ov-3, 96 h
# [18] = system: SK-OV-3; experiment: Cytotoxicity against human SK-OV-3 cells assessed as cell retraction at 28 uM incubated for 24 hrs by DAPI fluorescent staining analysis; type: toxicity, cell-based; conditions: sk-ov-3, 24 h
# [19] = system: SK-OV-3; experiment: Cytotoxicity against human SK-OV-3 cells assessed as change in cell cytoskeleton at 28 uM incubated for 24 hrs by phalloidin fluorescent staining analysis; type: toxicity, cell-based; conditions: sk-ov-3, 24 h
# [20] = system: SK-OV-3; experiment: Cytotoxicity against human SK-OV-3 cells assessed as change in fibronectin matrix organization at 28 uM incubated for 24 hrs by phalloidin fluorescent staining analysis; type: toxicity, cell-based; conditions: sk-ov-3, 24 h
# [21] = target: Cathepsin D (Homo sapiens, UniProt P07339); experiment: Inhibition of human Cathepsin D using MCA labeled GKPILFFRLK(DNP)-D-R-NH2 as substrate preincubated for 10 mins followed by substrate addition by FRET assay
# Cathepsin D, sequence (P07339 65-162 limits assumed): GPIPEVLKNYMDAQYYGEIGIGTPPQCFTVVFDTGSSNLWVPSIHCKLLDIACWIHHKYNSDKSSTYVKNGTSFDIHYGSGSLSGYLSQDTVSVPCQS
# Cathepsin D, sequence (P07339 169-412 limits assumed): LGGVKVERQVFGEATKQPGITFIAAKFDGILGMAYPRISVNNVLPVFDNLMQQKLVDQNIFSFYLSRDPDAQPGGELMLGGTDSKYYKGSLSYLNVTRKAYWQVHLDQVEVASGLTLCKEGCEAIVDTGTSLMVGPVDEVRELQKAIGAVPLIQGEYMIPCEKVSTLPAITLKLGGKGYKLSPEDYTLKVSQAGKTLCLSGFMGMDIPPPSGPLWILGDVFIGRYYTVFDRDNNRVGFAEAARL
structure (smiles),measurement,setting,value
CC(C)CC(=O)N[C@H](CCSC(F)(F)F)C(=O)N[C@H](C(=O)N[C@@H](CC(C)C)[C@@H](O)CC(=O)N[C@@H](C)C(=O)N[C@@H](CC(C)C)[C@@H](O)CC(=O)O)C(C)C,IC50,[1],0.031 µM
same,CHI,[2],45.85
same,logP,[3],3.3
same,Activity,[4],Non-Toxic
same,Activity,[5],Non-Toxic
same,Activity,[6],Non-Toxic
same,Activity,[7],Toxic
same,Activity,[8],Non-Toxic
same,Activity,[9],Toxic
same,Activity,[10],Toxic
same,Activity,[11],Toxic
same,Activity,[12],Toxic
same,Activity,[13],Toxic
same,Activity,[14],Toxic
same,Activity,[15],Toxic
same,Activity,[16],Toxic
CC(C)CC(=O)N[C@@H](C(=O)N[C@H](C(=O)N[C@@H](CCSC(F)(F)F)[C@@H](O)CC(=O)N[C@@H](C)C(=O)N[C@@H](CC(C)C)[C@@H](O)CC(=O)O)C(C)C)C(C)C,IC50,[1],0.193 µM
CC(C)CC(=O)N[C@@H](C(=O)N[C@H](C(=O)N[C@@H](CC(C)C)[C@@H](O)CC(=O)N[C@@H](C)C(=O)N[C@@H](CC(C)C)[C@@H](O)CC(=O)O)C(C)C)C(C)C,IC50,[1],0.021 µM
same,Activity,[4],Non-Toxic
same,Activity,[5],Non-Toxic
CC(C)CC(=O)N[C@@H](CCSC(F)(F)F)C(=O)N[C@H](C(=O)N[C@@H](CC(C)C)[C@@H](O)CC(=O)N[C@@H](C)C(=O)N[C@@H](CC(C)C)[C@@H](O)CC(=O)O)C(C)C,IC50,[1],0.775 µM
same,CHI,[2],46.95
same,logP,[3],3.33
same,Activity,[4],Non-Toxic
same,Activity,[5],Non-Toxic
CC(C)C[C@H](NC(=O)[C@H](C)NC(=O)C[C@H](O)[C@H](CC(C)C)NC(=O)[C@@H](NC(=O)[C@](C)(NC(=O)OCc1ccccc1)C(F)(F)F)C(C)C)[C@@H](O)CC(=O)O (Cbz-[X1]V[Sta]A[Sta]-OH),IC50,[1],0.048 µM
same,CHI,[2],47.24
same,logP,[3],3.36
same,Activity,[4],Non-Toxic
same,Activity,[5],Non-Toxic
same,Activity,[6],Non-Toxic
same,Activity,[17],Toxic
same,Activity,[8],Non-Toxic
same,Activity,[9],Toxic
same,Activity,[10],Toxic
same,Activity,[11],Toxic
same,Activity,[18],Toxic
same,Activity,[13],Toxic
same,Activity,[14],Toxic
same,Activity,[19],Toxic
same,Activity,[20],Toxic
CC(C)C[C@H](NC(=O)[C@H](C)NC(=O)C[C@H](O)[C@H](CC(C)C)NC(=O)[C@@H](NC(=O)[C@@](C)(NC(=O)OCc1ccccc1)C(F)(F)F)C(C)C)[C@@H](O)CC(=O)O (Cbz-[X2]V[Sta]A[Sta]-OH),IC50,[1],0.375 µM
same,CHI,[2],49.19
same,logP,[3],3.97
same,Activity,[4],Non-Toxic
same,Activity,[5],Non-Toxic
CC(C)C[C@H](NC(=O)[C@H](C)NC(=O)C[C@H](O)[C@H](CC(C)C)NC(=O)[C@@H](NC(=O)[C@@H](NC(=O)C(F)(F)F)C(C)C)C(C)C)[C@@H](O)CC(=O)O (Tfa-VV[Sta]A[Sta]-OH),IC50,[1],> 4 µM
same,IC50,[21],> 2 µM
same,CHI,[2],43.68
same,logP,[3],2.44
CC(C)CC(=O)N[C@H](C(=O)N[C@H](C(=O)N[C@@H](CC(C)C)[C@@H](O)CC(=O)N[C@@H](C)C(=O)N[C@@H](CC(C)C)[C@@H](O)CC(=O)O)C(C)C)C(C)C [PEPSTATIN],IC50,[1],0.05 µM
same,CHI,[2],39.55
same,logP,[3],2.37
